Laboratory results taken from patent US20070265451A1, “Process for the preparation of oxazolidinones and method of use thereof” (Board of Trustees of Michigan State University, priority 2001, published 2007).
≈ marks a conversion by molar mass, not a printed value. Read-outs that look alike come from different tables or passages of the source.

How the values were obtained:
Format in all cases: cell-based
[1] = system: Staphylococcus aureus 29213; assay: Broth microdilution MIC, Staphylococcus aureus ATCC 29213; conditions: for MIC90 / MIC: Staphylococcus aureus; for MIC90: ATCC29212, Table 1, read-out: MIC90-100 SA ATCC 29212; for MIC: ATCC29213, Table 2, read-out: MIC(90-100) SA-ATCC 29213
Excerpt: (§1) See, NCCLS document M7-A5. Methods for Dilution Antimicrobial Susceptibility Tests for Bacteria That Grow Aerobically; Approved Standard-Fifth Edition. Volume 20, Number 2. January 2000, (ISBN 1-56238-394-9) and Lorian V. Antibiotics. Laboratory Medicine. 4th ed. Baltimore: Williams and Wilkins, pp. 52-111 (1996). For subsequent testing, the following strains have been used: Staphylococcus aureus NRS4 (992; HIP5836; New Jersey) (Smith et al., New Engl. J. Med. 340: 493-501 (1999); Tenover et al., J. Clin. Microbiol. 36: 1020-1027 (1998)), Staphylococcus aureus NRS3 (963sm; HIP5827; Michigan) (Smith et al., ibid.; Tenover et al., ibid.), Staphylococcus aureus NRS103 (Becker) (Karakawa and Vann, Sem. Infect. Dis. 4: 285 (1982), Staphylococcus aureus NRS102 (Reynolds) Karakawa and Vann, ibid; McMurray et al., JID 162: 759-762 (1990)), Staphylococcus epidermidis NRS101 (ATCC 35984), Streptococcus pneumoniae (ATCC 49619), Enterococcus faecalis (ATCC 51299), and Staphylococcus aureus (ATCC 43300.
(§2) Stock cultures of these strains were obtained by seeding colonies from overnight streak plates (Tryptic Soy Agar II (TSAII) and 5% sheep's blood (SB) agar plates: Becton Dickinson, CA#2211261) into sterile Mueller-Hinton Broth (MHB)(Becton Dickinson, CA#211443) and growing the suspensions to mid-late log phase in 13 mL screw-cap tubes. Glycerol (Sigma, CA#G-6279) was sterilized by autoclaving for 15 minutes at 121° C. in 6 mL volumes, and then stored at 2-8° C. This was diluted to 20% in dH2O, and then added 1:1 (250 μL:250 μL, 10% final glycerol concentration) to the logarithmically growing bacterial suspension of each strain. Tubes were frozen and stored at −70° C. Purity of the stock cultures was tested by thawing one tube of each strain in a water bath at 37° C. and plating them on TSAII with 5% SB. Plates were incubated overnight at 37° C. and colonies were examined for morphology. Growth curves and approximate CFU/mL were also obtained.
(§3) High purity substituted oxazolidinones prepared according to the method of the present invention and a ZYVOX standard (ZYVOX is a trade name for linezolid available from Pharmacia Corporation) were provided by Synthon Corporation, Monmouth Junction, N.J. Compounds were dissolved at 10 mg/mL in DMSO, as after a dilution of approx. 39.0 to reach the desired final starting concentration of 256 ug/ml, the concentration of DMSO is approximately 2.5%. Compounds were then stored at room temperature (25° C.) in the dark.
(§4) Antimicrobial susceptibility screening was as follows. All compounds were initially screened for activity in duplicate at 256 μg/mL (2.5% DMSO), including ZYVOX, the positive control for antimicrobial activity. A single well of bacterially inoculated 2.5% DMSO served as a positive control for bacterial growth, while a well of DMSO inoculated with of 50 μL of sterile 0.9% saline served as a negative growth control. Controls were prepared on every microplate, so that 46 was the maximum number of compounds that were screened per plate. Broth was pipetted into sterile microcentrifuge tubes, to which the compounds were then added (1:19.53 dilution or 2× final concentration). Each tube was vortexed, and 50 μL was immediately transferred to the microplate wells for each strain. Solubility was assessed by visual observation. MB (medium broth solubility) was recorded if the solution appeared only slightly cloudy. LB (low broth solubility) was recorded if the solution was extremely cloudy, and especially if larger, clumpy precipitates formed. Bacteria were grown as described above, although absorbance was measured at 650 nm and bacteria were diluted to an initial OD of 0.12-0.15. Bacteria were then further diluted 1:100 with 0.9% sterile saline. Within 15 minutes of this final dilution, 50 μL of this suspension was added to each well for a final volume of […], and a final bacterial concentration of 1×10^5 CFU/mL (except for the negative control well). Plates were grown as above and all observations were recorded. […]

[2] = system: Enterococcus faecalis 29212; assay: Broth microdilution MIC, Enterococcus faecalis ATCC 29212; conditions: for MIC90 / MIC: Enterococcus faecalis; for MIC90: ATCC29213, Table 1, read-out: MIC90-100 EF ATCC 29213; for MIC: ATCC29212, Table 2, read-out: MIC(90-100) EF-ATCC 29212
[3] = system: Myeloid bone marrow cells; assay: Bone marrow cell growth inhibition, myeloid
Excerpt: (§5) In general, many of the substituted oxazolidinones were as effective as ZYVOX.

[4] = system: Erythroid bone marrow cells; assay: Bone marrow cell growth inhibition, erythroid
Excerpt: as §5

[5] = system: Megakaryocytic bone marrow cells; assay: Bone marrow cell growth inhibition, megakaryocytic
Excerpt: as §5

[6] = system: Staphylococcus aureus NRS4 (992; HIP5836; New Jersey); assay: Broth microdilution MIC, MR SA New Jersey; conditions: strain New Jersey; for MIC90: Staphylococcus aureus, NRS4, methicillin resistant SA, read-out: MIC90-100 MR SA New Jersey
Excerpt: as §1, §2, §3, §4

[7] = system: Staphylococcus aureus NRS3 (963sm; HIP5827; Michigan); assay: Broth microdilution MIC, MR SA Michigan; conditions: strain Michigan; for MIC90: Staphylococcus aureus, NRS3, methicillin resistant SA, read-out: MIC90-100 MR SA Michigan
Excerpt: as §1, §2, §3, §4

[8] = system: Enterococcus faecalis (ATCC 51299); assay: Broth microdilution MIC, Enterococcus faecalis ATCC 51299
Excerpt: as §1, §2, §3, §4

[9] = system: Staphylococcus aureus (ATCC 43300); assay: Broth microdilution MIC, MR SA ATCC 43300; conditions: ATCC43300, methicillin resistant SA, read-out: MIC90-100 MR SA ATCC 43300
Excerpt: as §1, §2, §3, §4

[10] = system: Staphylococcus aureus NRS102 (Reynolds); assay: Broth microdilution MIC, Pen. R SA Reynolds; conditions: strain Reynolds, read-out: MIC90-100 Pen. R SA Reynolds
Excerpt: as §1, §2, §3, §4

[11] = system: Staphylococcus aureus NRS103 (Becker); assay: Broth microdilution MIC, Ref SA Becker; conditions: strain Becker, read-out: MIC90-100 Ref SA Becker
Excerpt: as §1, §2, §3, §4

[12] = ATCC51299, vancomycin sensitive EF, ATCC 51299, read-out: MIC90-100 VS EF ATCC 51299
[13] = ATCC51299, read-out: MIC90-100 VS EF ATCC 51299

MIC90 ([1]; SA, strain ATCC 29212) [µg/mL]	MIC90 ([2]; EF, strain printed ATCC 29213) [µg/mL]	IC50 [3] [µg/mL]	IC50 [4] [µg/mL]	IC50 [5] [µg/mL]	MIC [1] [µg/mL]	MIC90 [6] [µg/mL]	MIC90 [7] [µg/mL]	MIC90 [8, 12] [µg/mL]	MIC90 [9] [µg/mL]	MIC90-100 SA ATCC 29212 ([1]; Table 1, SA, strain ATCC 29212) [µg/mL]	MIC90-100 EF ATCC 29213 ([2]; Table 1, EF, strain printed ATCC 29213) [µg/mL]	MIC90-100 MR SA New Jersey ([6]; methicillin resistant SA) [µg/mL]	MIC90-100 MR SA Michigan ([7]; methicillin resistant SA) [µg/mL]	MIC90 [10] [µg/mL]	MIC90 [11] [µg/mL]	SMILES	MIC [2] [µg/mL]	MIC90 [8, 13] [µg/mL]
64 to 125 (≈ 133 to 259 µM)	250 (≈ 519 µM)	0.8 (≈ 1.66 µM)	0.2 (≈ 0.415 µM)	3 (≈ 6.23 µM)												COc1ccc(C(=O)CN2C[C@@H](COS(=O)(=O)c3ccc(Cl)c4nonc34)OC2=O)cc1 [Compound 207]		
8 to 16 (≈ 23.2 to 46.5 µM)	250 (≈ 726 µM)	30 (≈ 87.1 µM)	7 (≈ 20.3 µM)	10 (≈ 29 µM)	15.6 (≈ 45.3 µM)	256 (≈ 743 µM)	256 (≈ 743 µM)	> 256	> 256							CC(C)N1C[C@@H](COS(=O)(=O)c2ccc([N+](=O)[O-])cc2)OC1=O [Compound 253]		
16 to 32 (≈ 41.3 to 82.6 µM)	250 (≈ 645 µM)	20 (≈ 51.6 µM)	20 (≈ 51.6 µM)	0.9 (≈ 2.32 µM)	32 (≈ 82.6 µM)	256 (≈ 661 µM)	256 (≈ 661 µM)	> 256	100 (≈ 258 µM)							CN(C)C(=O)CN1C[C@@H](COS(=O)(=O)c2ccc([N+](=O)[O-])cc2)OC1=O [Compound 1021]		
		5 (≈ 15.1 µM)	0.05 (≈ 0.151 µM)	0.6 (≈ 1.82 µM)	8 (≈ 24.2 µM)			> 256	128 (≈ 388 µM)	4 to 8	250 (≈ 757 µM)	256 (≈ 775 µM)	256 (≈ 775 µM)			CCN1C[C@@H](COS(=O)(=O)c2ccc([N+](=O)[O-])cc2)OC1=O [Compound 1192]		
2 (≈ 7.06 µM)	2 (≈ 7.06 µM)	20 (≈ 70.6 µM)	0.01 (≈ 0.0353 µM)	6 (≈ 21.2 µM)		2 (≈ 7.06 µM)	2 (≈ 7.06 µM)							3 (≈ 10.6 µM)	3 (≈ 10.6 µM)	CN1C[C@@H](CNSc2ccc([N+](=O)[O-])cc2)OC1=O [Compound 1687]		
2 (≈ 6.42 µM)	4 (≈ 12.8 µM)	5 (≈ 16.1 µM)	0.5 (≈ 1.61 µM)	0.08 (≈ 0.257 µM)		3 (≈ 9.64 µM)	2 (≈ 6.42 µM)	8 (≈ 25.7 µM)	4 (≈ 12.8 µM)					32 (≈ 103 µM)	4 (≈ 12.8 µM)	CC(C)N1C[C@@H](CNSc2ccc([N+](=O)[O-])cc2)OC1=O [Compound 1705]		
2 (≈ 6.73 µM)	4 (≈ 13.5 µM)	5 (≈ 16.8 µM)	0.7 (≈ 2.35 µM)	0.08 (≈ 0.269 µM)		3 (≈ 10.1 µM)	3 (≈ 10.1 µM)	8 (≈ 26.9 µM)	4 (≈ 13.5 µM)					32 (≈ 108 µM)	8 (≈ 26.9 µM)	CCN1C[C@H](CNSc2ccc([N+](=O)[O-])cc2)OC1=O [Compound 1715]		

SMILES	MIC90 ([1]; SA, strain ATCC 29212) [µg/mL]	MIC90 ([2]; EF, strain printed ATCC 29213) [µg/mL]	IC50 [3] [µg/mL]	IC50 [4] [µg/mL]	IC50 [5] [µg/mL]	MIC [1] [µg/mL]	MIC90 [6] [µg/mL]	MIC90 [7] [µg/mL]	MIC90 [8, 12] [µg/mL]	MIC90 [9] [µg/mL]	MIC90-100 SA ATCC 29212 ([1]; Table 1, SA, strain ATCC 29212) [µg/mL]	MIC90-100 EF ATCC 29213 ([2]; Table 1, EF, strain printed ATCC 29213) [µg/mL]	MIC90-100 MR SA New Jersey ([6]; methicillin resistant SA) [µg/mL]	MIC90-100 MR SA Michigan ([7]; methicillin resistant SA) [µg/mL]	MIC90 [10] [µg/mL]	MIC90 [11] [µg/mL]	MIC [2] [µg/mL]	MIC90 [8, 13] [µg/mL]
O=C1O[C@@H](COSc2ccc([N+](=O)[O-])cc2)CN1c1ccc([N+](=O)[O-])cc1 [Compound 1808]	4 to 8 (≈ 10.2 to 20.4 µM)	2 (≈ 5.11 µM)				8 (≈ 20.4 µM)	4 (≈ 10.2 µM)	3 (≈ 7.67 µM)		8 (≈ 20.4 µM)					16 (≈ 40.9 µM)	16 (≈ 40.9 µM)	2 (≈ 5.11 µM)	2 (≈ 5.11 µM)
O=C(OC[C@H]1CN(c2ccc([N+](=O)[O-])cc2)C(=O)O1)Oc1ccc([N+](=O)[O-])cc1 [Compound 1809]	4 to 8 (≈ 9.92 to 19.8 µM)	4 (≈ 9.92 µM)				8 (≈ 19.8 µM)	3 (≈ 7.44 µM)	3 (≈ 7.44 µM)		4 (≈ 9.92 µM)					8 (≈ 19.8 µM)	4 (≈ 9.92 µM)	4 (≈ 9.92 µM)	2 (≈ 4.96 µM)
